According to patent US20250304571A1, “BIOLOGICALLY ACTIVE COMPOUNDS AND METHODS THEREOF” (Suzhou Keen Therapeutics Co., Ltd., priority 2022, published 2025):
pIC50: −log10 of the molar value. Read-outs that look alike come from different tables or passages of the source.

System: 786-O (renal cell carcinoma) cells
Experiment: Cell viability (CellTiter Glo) assay, inhibition of 786-O cell proliferation
Type: cell-based
Conditions: read-out: IC50, inhibition of 786-O cell proliferation
[1] = Homo sapiens, 786-0, 786-O cells, 72 hours, CellTiter Glo
[2] = 786-O cells, 72 hours, CellTiter Glo

CN(CC(F)(F)F)C(=N)OCc1ncc2c(n1)N(c1ccc(Oc3ccccc3)cc1)CC2(C)C [Compound E136]
pIC50 [1]: > 7.00

CC(C)N(CC(F)(F)F)C(=N)OCc1ncc2c(n1)N(c1ccc(Oc3ccccc3)cc1)CC21CC1 [Compound E137]
pIC50 [1]: > 7.00

CC(C)N(CC(F)(F)F)C(=N)OCc1ncc(C(C)(C)O)c(Nc2ccc(Oc3ccccc3)cc2)n1 [Compound E138]
pIC50 [1]: 6.30 to 7.00

CC(C)N(CC(F)(F)F)C(=N)OCc1ncc2c(n1)N(c1ccc(OC3CC3)nc1)C(=O)C21CC1 [Compound E139]
pIC50 [1]: 5.30 to 6.30

CN1CCN=C1OCc1ncc2c(n1)N(c1ccc(Oc3ccccc3)cc1)CC2(C)C [Compound E140]
pIC50 (Homo sapiens, 786-0, 72 h): 5.30 to 6.30

CC(C)N(CC(F)(F)F)C(=N)OCc1ncc2c(n1)N(c1ccc(N3CCOCC3)nc1)CC21CC1 [Compound E141]
pIC50 [1]: 6.30 to 7.00

CC(C)N(CC(F)(F)F)C(=N)OCc1ncc2c(n1)N(c1cccc(Oc3ccccc3)c1)CC21CC1 [Compound E142]
pIC50 [1]: 5.30 to 6.30

CC(C)N(CC(F)(F)F)C(=N)OCc1ncc2c(n1)N(c1ccccc1Oc1ccccc1)CC21CC1 [Compound E143]
pIC50 [1]: 6.30 to 7.00

CC(C)N(CC(F)(F)F)C(=N)OCc1ncc2c(n1)N(c1cccc(OC3CCOCC3)c1)CC21CC1 [Compound E144]
pIC50 [1]: 5.30 to 6.30

CC(C)N(CC(F)(F)F)C(=N)OCc1ncc2c(n1)N(c1ccc(OC3CCOCC3)cc1)CC21CC1 [Compound E145]
pIC50 [1]: 6.30 to 7.00

N=C(OCc1ncc2c(n1)N(c1ccc(OC3CCOCC3)nc1)CC21CC1)N1CC(F)(F)C1 [Compound E146]
pIC50 [1]: 5.30 to 6.30

CN(C)C(=N)OCc1ncc2c(n1)N(c1ccc(OC3CCOCC3)nc1)CC21CC1 [Compound E147]
pIC50 (Homo sapiens, 786-0, 72 h): < 5.30

CC(C)N(CC(F)(F)F)C(=N)OCc1ncc2c(n1)N(c1ccc(N3CCOCC3)nc1)C(=O)CC2 [Compound E148, 1-isopropyl-2-[[8-(6-morpholino-3-pyridyl)-7-oxo-5,6-dihydropyrido[2,3-d]pyrimidin-2-yl]methyl]-1-(2,2,2-trifluoroethyl)isourea]
pIC50 [1]: < 5.30

CC(C)N(CC(F)(F)F)C(=N)OCc1ncc2c(n1)N(c1ccc(N3CCOCC3)nc1)C(=O)C21CC1 [Compound E149]
pIC50 [1]: 5.30 to 6.30

CC(C)N(CC(F)(F)F)C(=N)OCc1ncc2c(n1)N(c1ccc(N3CCCCC3)nc1)C(=O)C21CC1 [Compound E150]
pIC50 [1]: 6.30 to 7.00

CN1CCCN=C1OCc1ncc2c(n1)N(c1ccc(Oc3ccccc3)cc1)CC2(C)C [Compound E151, 5,5-dimethyl-2-(((1-methyl-1,4,5,6-tetrahydropyrimidin-2-yl)oxy)methyl)-7-(4-phenoxyphenyl)-6,7-dihydro-5H-pyrrolo[2,3-d]pyrimidine]
pIC50 [1]: < 5.30

CNc1nc(COC(=N)N2CCCC2C(F)(F)F)nc2c1C(C)(C)C(=O)N2c1ccc(N2CCOCC2)cc1 (stereo not shown) [Compound E152, [5,5-dimethyl-4-(methylamino)-7-(4-morpholinophenyl)-6-oxo-pyrrolo[2,3-d]pyrimidin-2 yl]methyl 2-(trifluoromethyl)pyrrolidine-1-carboximidate]
pIC50 [1]: > 7.00

CNc1nc(COC(=N)N2CCCCC2C(F)(F)F)nc2c1C(C)(C)C(=O)N2c1ccc(N2CCOCC2)cc1 (stereo not shown) [Compound E153]
pIC50 [1]: > 7.00

[2H]C([2H])(OC(=N)N(CC(F)(F)F)C(C)C)c1nc(N)c2c(n1)N(c1ccc(OC3CCCCC3)cc1)CC2(C)C [Compound E154, ethyl (4-amino-7-(4-(cyclohexyloxy)phenyl)-5,5-dimethyl-6,7-dihydro-5H-pyrrolo[2,3-d]pyrimidin-2-yl)methyl-d2 isopropyl(2,2,2-trifluoroethyl)carbamimidate]
pIC50 [1]: > 7.00

[2H]C([2H])(OC(=N)N1CCCCC1C(F)(F)F)c1nc(N)c2c(n1)N(c1ccc(OC3CCCCC3)cc1)CC2(C)C (stereo not shown) [Compound E155]
pIC50 [1]: > 7.00

CC(C)N(CC(F)(F)F)C(=N)OCc1ncc(C2CCCCO2)c(Nc2ccc(N3CCOCC3)nc2)n1 (stereo not shown) [Compound E156, (4-((6-morpholinopyridin-3-yl)amino)-5-(tetrahydro-2H-pyran-2-yl)pyrimidin-2-yl)methyl isopropyl]
pIC50 [1]: 5.30 to 6.30

CC(C)N(CC(F)(F)F)C(=N)OCc1ncc2c(n1)N(c1ccc(N3CCOCC3)cc1)C(=O)C21CCOCC1 [Compound E157, (7′-(4-morpholinophenyl)-6′-oxo-2,3,5,6,6′,7′-hexahydrospiro[pyran-4,5′-pyrrolo[2,3-d]pyrimidin]-2′-yl)methyl isopropyl(2,2,2-trifluoroethyl)carbamimidate]
pIC50 [1]: < 5.30

CC(C)N(CC(F)(F)F)C(=N)OCc1nc(Cl)c2c(n1)N(c1ccc(OC3CCCCC3)nc1)C(=O)C2(C)C [Compound E158, (4-chloro-7-(6-(cyclohexyloxy)pyridin-3-yl)-5,5-dimethyl-6-oxo-6,7-dihydro-5H-pyrrolo[2,3-d]pyrimidin-2-yl)methyl isopropyl(2,2,2-trifluoroethyl)carbamimidate]
pIC50 [1]: 5.30 to 6.30

CC(C)N(CC(F)(F)F)C(=N)OCc1ncc2c(n1)N(c1ccc(C3CCCCC3)cc1)C(=O)C21CC1 [Compound E159]
pIC50 [1]: 6.30 to 7.00

CC(C)N(CC(F)(F)F)C(=N)OCc1ncc2c(n1)N(c1ccc(C3CCCCC3)nc1)C(=O)C21CC1 [Compound E160]
pIC50 [1]: 5.30 to 6.30

CCCCOc1ccc(N2C(=O)C3(CC3)c3cnc(COC(=N)N(CC(F)(F)F)C(C)C)nc32)cc1 [Compound E161]
pIC50 [1]: 6.30 to 7.00

CC(C)N(CC(F)(F)F)C(=N)OCc1ncc2c(n1)N(c1ccc(N3CCOCC3)cc1)C(=O)C21CC1 [Compound E162]
pIC50 [1]: 5.30 to 6.30

CC(C)N(CC(F)(F)F)C(=N)OCc1ncc2c(n1)N(c1ccc(N3CCCCC3)cc1)C(=O)C21CC1 [Compound E163]
pIC50 [1]: 6.30 to 7.00

CCCCCCOc1ccc(N2C(=O)C3(CC3)c3cnc(COC(=N)N(CC(F)(F)F)C(C)C)nc32)cc1 [Compound E164]
pIC50 [1]: > 7.00

CC(C)N(CC(F)(F)F)C(=N)OCc1ncc2c(n1)N(c1ccc(O)cc1)C(=O)C21CC1 [Compound E165]
pIC50 [1]: < 5.30

CNc1nc(COC(=N)N(CC(F)(F)F)C(C)C)nc2c1C1(CC1)C(=O)N2c1ccc(N2CCCCC2)nc1 [Compound E166]
pIC50 [1]: > 7.00

CC(C)N(CC(F)(F)F)C(=N)OCc1nc(N)c2c(n1)N(c1ccc(OC3CCCCC3)nc1)C(=O)C2(C)C [Compound E167]
pIC50 [1]: > 7.00

CNc1nc(COC(=N)N(CC(F)(F)F)C(C)C)nc2c1C(C)(C)C(=O)N2c1ccc(OC2CCCCC2)nc1 [Compound E168]
pIC50 [1]: > 7.00

CNc1nc(COC(=N)N(C)C2COC2)nc2c1C(C)(C)C(=O)N2c1ccc(OC2CCCCC2)cc1 [Compound E169]
pIC50 [1]: 6.30 to 7.00

CC1(C)C(=O)N(c2ccc(N3CCOCC3)cc2)c2nc(COC(=N)N3CCCC3C(F)(F)F)nc(N)c21 (stereo not shown) [Compound E170]
pIC50 [1]: > 7.00

CNc1nc(COC(=N)N2CCCCC2C(F)(F)F)nc2c(-c3ccc(N4CCOCC4)cc3OC)csc12 (stereo not shown) [Compound E171]
pIC50 [1]: > 7.00

CC1(C)C(=O)N(c2ccc(N3CCOCC3)cc2)c2nc(COC(=N)N3CCCCC3C(F)(F)F)nc(N)c21 (stereo not shown) [Compound E172]
pIC50 [2]: > 7.00

CNc1nc(COC(=N)N2CCCC2C(F)(F)F)nc2c1C(C)(C)C(=O)N2c1ccc(OC2CCCCC2)cc1 (stereo not shown) [Compound E173]
pIC50 [1]: > 7.00

CNc1nc(COC(=N)N2CCCCC2C(F)(F)F)nc2c1C(C)(C)C(=O)N2c1ccc(OC2CCCCC2)cc1 (stereo not shown) [Compound E174]
pIC50 [1]: > 7.00

CCNc1nc(COC(=N)N2CCCC2C(F)(F)F)nc2c1C(C)(C)C(=O)N2c1ccc(N2CCOCC2)cc1 (stereo not shown) [Compound E175]
pIC50 [1]: > 7.00

CC(C)Nc1nc(COC(=N)N2CCCC2C(F)(F)F)nc2c1C(C)(C)C(=O)N2c1ccc(N2CCOCC2)cc1 (stereo not shown) [Compound E176, (4-(Isopropylamino)-5,5-dimethyl-7-(4-morpholinophenyl)-6-oxo-6,7-dihydro-5H-pyrrolo[2,3-d]pyrimidin-2-yl)methyl 2-(trifluoromethyl)pyrrolidine-1-carbimidate]
pIC50 (Homo sapiens, 786-0, 72 h): > 7.00

CNc1nc(COC(=N)N2CCCC2C(F)(F)F)nc2c(-c3ccc(N4CCOCC4)cc3)csc12 (stereo not shown) [Compound E179, (4-(Methylamino)-7-(4-morpholinophenyl)thieno[3,2-d]pyrimidin-2-yl)methyl 2-(trifluoromethyl)pyrrolidine-1-carbimidate]
pIC50 [1]: > 7.00

CNc1nc([C@H](C)OC(=N)N2CCC[C@@H]2C(F)(F)F)nc2c1C(C)(C)C(=O)N2c1ccc(N2CCOCC2)cc1 [Compound E180]
pIC50 [2]: < 5.30

CNc1nc([C@@H](C)OC(=N)N2CCC[C@@H]2C(F)(F)F)nc2c1C(C)(C)C(=O)N2c1ccc(N2CCOCC2)cc1 [Compound E181]
pIC50 [2]: < 5.30

CNc1nc(COC(=N)N2CCCC2C(F)(F)F)nc2c1C(C)(C)C(=O)N2c1ccc2c(c1)CCCO2 (stereo not shown) [Compound E182]
pIC50 [2]: > 7.00

CNc1nc(COC(=N)N2CCC[C@H]2C(F)(F)F)nc2c1C(C)(C)C(=O)N2c1ccc(N2C[C@@H](C)O[C@@H](C)C2)nc1 [Compound E183]
pIC50 [1]: 6.30 to 7.00

CNc1nc(COC(=N)N2CCC[C@@H]2C(F)(F)F)nc2c(-c3ccc(N4CCOCC4)cc3OC)coc12 [Compound E184, (7-(2-Methoxy-4-morpholinophenyl)-4-(methylamino)furo[3,2-d]pyrimidin-2-yl)methyl (R)-2-(trifluoromethyl)pyrrolidine-1-carbimidate]
pIC50 [1]: > 7.00

CNc1nc(COC(=N)N2CCC[C@@H]2C(F)(F)F)nc2c1C(C)(C)C(=O)N2c1ccc2c(c1)CCCO2 [Compound E185]
pIC50 [1]: > 7.00

C[C@@H]1CN(c2ccc(N3C(=O)C(C)(C)c4c(N)nc(COC(=N)N5CCC[C@@H]5C(F)(F)F)nc43)cn2)C[C@H](C)O1 [Compound E186, (4-amino-7-(6-((2S,6R)-2,6-dimethylmorpholino)pyridin-3-yl)-5,5-dimethyl-6-oxo-6,7-dihydro-5H-pyrrolo[2,3-d]pyrimidin-2-yl)methyl (R)-2-(trifluoromethyl)pyrrolidine-1-carbimidate]
pIC50 [1]: > 7.00
